The text below walks through data of patent publication US11572373B2, “Maytansinoid-based drug delivery systems” (LADRX CORPORATION, priority 2017, dated 2023).

pIC50: −log10 of the molar value. Where two headings read alike, the source gives them in different places. Marks after values point to notes of the source that are not given here.

Data set [1] in a line: Stability of maytansinoids and maytansinoid-HSA conjugates in human plasma. As to conditions: 37° C., 30 μM. Format: in vitro ADME. As to the method:
(§1) For studying the stability of the maytansinoids as wells as the maytansinoid-HSA conjugates in CD1 and human plasma the compounds were incubated at 37° C. for 24 hours. Remaining free maytansinoid or release of the respective maytansinoid was quantified by LC-MS/MS (or HPLC) at certain time points.
(§2) Pooled CD1 mouse or human plasma (K2EDTA, Innovative research) was centrifuged (1 min at 12,044 g). The supernatant was first filtered through a filter needle (5 μm, sterile, Becton Dickinson) and subsequently through a cellulose acetate membrane (0.45 μm, sterile, Carl Roth). The filtered plasma (1710 μL) was preincubated at 37° C. for 30 min in a heating block. The free maytansinoid or albumin-binding maytansinoid as a 300 μM stock solution in DMSO (190 μL) was added to the preincubated plasma sample to produce a 30 μM solution of the respective maytansinoid or maytansinoid-HSA conjugate. The mixture was allowed to react for 10 min at 37° C. and then at each time point (0, 1, 2, 3, 4, 5, 21, and 24 hours) three samples (70 μL) were taken into a 96-well plate, sealed with a plastic mat, immediately frozen with liquid nitrogen and stored at −20° C. At the end of the experiment, the 96-well plate was thawed at room temperature. The samples (30 μL) were then directly transferred via a multichannel pipette into a 96-well Impact™ protein precipitation plate (Strata®) which was once washed with MeCN (150 μL) and then loaded with the internal standard (120 μL, MeCN containing 5 μg/mL maytansine). The Impact™ precipitation plate was sealed with a silicone mat and shaken for 2 min 420 rpm. The Impact™ precipitation plate was then placed onto a 96-well sample manifold and the filtrate was collected into another 96-well plate by applying mild vacuum. The 96-well plate was sealed with a silicone mat and kept at room temperature until LC-MS/MS quantification. The filtrate was injected into the LC-MS for quantification using the MRM mode. […]

A short description of data set [2]: Stability of maytansinoids and maytansinoid-HSA conjugates in CD1 mouse plasma. Format: in vitro ADME. The following applies: 37° C., 30 μM. As to the method: as §1, §2
Data set [3] in a line: In vitro cytotoxicity in different cell lines using the CellTiter-Blue Cell Viability Assay. Type of data set: cell-based, human. As to conditions: Homo sapiens; geometric mean over the n cell lines tested, 96 h treatment, CellTiter-Blue; read-out: Geomean IC50. On the technique in general: The colour change of resazurin is a common sign of viable cells or microbes.
A further data set addresses T1, albumin (Homo sapiens, UniProt P02768).
T1 construct: tissue Zen-Bio; host or cells: pooled human whole blood (K2EDTA, 36 donors) and plasma prepared from it
The data set can be described thus: in vitro. Format: in vitro ADME. The following applies: 37° C., 12.0 μM, read-out: % bound (converted). As to the method:
To study the binding kinetics of the albumin-binding maytansinoids in pooled human plasma and pooled human whole blood, the compounds were incubated together with pooled human plasma at 37° C. and samples were taken at specified time points. Remaining albumin-binding maytansinoids were quantitated by HPLC.
To study the binding kinetics in human whole blood, the blood (K2EDTA, 36 donors, Zen-Bio; 900 μL) was preincubated at 37° C. for 30 min in a heating block. To study the binding kinetics in pooled human plasma, the pooled whole blood was centrifuged (10 min, 1811 g), the supernatant plasma was collected and then preincubated at 37° C. for 30 min.
The albumin-binding maytansinoid was added to the preincubated whole blood/plasma sample as a 10-fold dilution in PBS of a 1.2 mM stock solution in 2.5% propylene glycol in 10 mM sodium phosphate buffer and 1.48 mM citrate (100 μL) to produce a 12.0 μM solution of the respective albumin-binding maytansinoid. Samples (190 μL) were taken after 15 s, 2 min, 4 min, 8 min and 15 min. The samples were directly added to 760 μL MeCN containing maytansine (5 μg/mL) as an internal standard and vortexed for 1 min. After centrifugation (1 min at 12,044 g) the supernatant (850 μL) was concentrated under high vacuum. The residue was taken up in DMSO/water (1:1 v/v; 95 μL) and then analyzed by RP-HPLC. Percentage of binding was determined by comparison of the area under the curve (AUC) at 220 nm of the albumin-binding maytansinoid relative to a control sample (100% value) in PBS buffer. All experiments were performed in triplicates.
HPLC method: Phenomenex Kinetex Polar C18, 2.6 μm, 100 Å, 150×4.6 mm; eluent A (95:5 5 mM ammonium acetate: MeCN) and eluent B (5:95 5 mM ammonium acetate: MeCN) eluting with a gradient of eluent B (30% 0-0.5 min, 30-95% 0.5-9.0 min, 95% 11.0 min, 95-30% 11.0-14.5 min, 30% 15.0 min, flow rate=1.0 mL/min). Column oven temperature ambient temperature; autosampler temperature 4° C.; 50 μL of injection volume.

Data set [4] is described as follows: Stability and release kinetics of maytansinoid-HSA conjugates in buffer solution at pH 4.0 and pH 7.4. Type of data set: physicochemical. As to conditions: maytansinoid-HSA conjugate, PBS pH 7.4, 37° C., measured at 100 μM. As to the method: For preparing HSA conjugates of albumin-binding maytansinoids, HSA (200 μM: 361.8 μL, 1078 μM free Cys34; 100 μM: 180.9 μL, 1078 μM free Cys34) was diluted with PBS buffer (4 mM sodium phosphate, 150 mM NaCl, pH 7.4) (200 μM: 678.2 μL; 100 μM: 859.1 μL) and DMSO (200 μM: 130.0 μL; 100 μM: 195.0 μL) and incubated in a heating block at 37° C. for 30 minutes. The albumin-binding maytansinoid was added as a 2 mM stock solution in DMSO (200 μM: 130.0 μL; 100 μM: 65.0 μL) to the preincubated HSA sample to produce a 200 μM or 100 μM solution of maytansinoid-prodrug and 300 μM or 150 μM of free Cys34. The mixture having a pH of 7.4 was allowed to react for 10 min at 37° C. and was then analyzed hourly for 24 hours by RP-HPLC (Phenomenex Aeris WP XB-C18, 3.6 μm, 250×4.6 mm).
For studying the release kinetics at pH 4.0 the mixture was acidified with a mixture of 50 mM sodium acetate buffer pH 3.0 (200 μM: 119.3 μL; 100 μM: 125.2 μL) and 1 M HCl (200 μM: 12.7 μL; 100 μM: 6.8 μL) to reach pH 4.0. The mixture was subsequently analyzed hourly for 24 hours by RP-HPLC (Phenomenex Aeris WP XB-C18, 3.6 μm, 250×4.6 mm).
The following RP-HPLC conditions were used: Phenomenex Aeris WP XB-C18 3.6 μm, 250×4.6 mm; eluent A (100% 20 mM Tris buffer pH 8.0) and eluent B (90:10, MeCN: water) eluting with a gradient of eluent B (25% 0-0.5 min, 25-35% 0.5-2.5 min, 35-85% 2.5-16 min, 85-95% 16-17 min, 95% 17-20 min, 95-25% 20-25 min, 25% 25-30 min, flow rate 1.0 mL/min). Column oven temperature 37° C.; autosampler temperature 37° C.; 20 μL of injection volume.
To quantify the percentage of free drug released, standard curves of the free maytansinoids were prepared at different concentrations (200 μM, 100 μM, 50 μM, 25 μM and 12.5 μM). The area under the curve (AUC) was determined at 250 nm.

For data set [5], the system named is human tumor xenograft models. Description: Antitumor activity in human tumor xenograft mice models. Type of data set: in vivo. As to conditions: five human tumor xenograft models in nude mice, i.v. on day 1, 8, 15, and 22. An excerpt:
This included starting tumor volumes in the range of approximately 80-110 mm^3 but also initial starting tumor volumes of up to approximately 400 mm^3. Furthermore, in most cases therapy with albumin-binding maytansinoids 30 and 31 induced long-term remissions and a decrease in Relative Tumor Volume (RTV). […] Experimental procedure and the results in the tumor-bearing mice models are described in detail in Examples 11-19 and FIGS. 3-16.
Female immunodeficient NMRI nude mice, from Charles River, received unilateral tumor implants subcutaneously in the left flank while under isoflurane anesthesia with human cancer tumors until tumors were palpable and had reached a volume of 80-200 mm^3 (unless otherwise stated).
Animals were kept in cages, the temperature inside the cages maintained at 25±1° C. with a relative humidity of 45-65% and an air change rate in the cage of 60-fold per hour. They were kept under a 14 h light: 10 h dark, artificial light cycle. The animals were fed with autoclaved Teklad Global 19% Protein Extruded Diet (T.2019S.12) from Envigo RMS SARL and had access to sterile filtered and acidified (pH 2.5) tap water, which was changed twice weekly. Feed and water were provided ad libitum. […] Animals were routinely monitored twice daily on working days and daily on Saturdays and Sundays. […] Relative body weights (RBW) of individual animals were calculated by dividing the individual absolute body weight on day X (BWx) by the individual body weight on the day of randomization multiplied by 100%. The tumor volume was determined by a two-dimensional measurement with calipers on the day of randomization (day 0) and then twice weekly. Tumor volumes were calculated according to the following equation: Tumor Vol [mm^3]=1 [mm]×w^2 [mm^2]×0.5, where “1” is the length and “w” is width of the tumor. The relative volume of an individual tumor on day X (RTVx) was calculated by dividing the absolute individual tumor volume [mm^3] of the respective tumor on day X (Tx) by the absolute individual tumor volume of the same tumor on the day of randomization multiplied by 100%. […]
(Xenograft models place foreign cells or tissue in a host animal.)

T1 sequence (P02768 25-609): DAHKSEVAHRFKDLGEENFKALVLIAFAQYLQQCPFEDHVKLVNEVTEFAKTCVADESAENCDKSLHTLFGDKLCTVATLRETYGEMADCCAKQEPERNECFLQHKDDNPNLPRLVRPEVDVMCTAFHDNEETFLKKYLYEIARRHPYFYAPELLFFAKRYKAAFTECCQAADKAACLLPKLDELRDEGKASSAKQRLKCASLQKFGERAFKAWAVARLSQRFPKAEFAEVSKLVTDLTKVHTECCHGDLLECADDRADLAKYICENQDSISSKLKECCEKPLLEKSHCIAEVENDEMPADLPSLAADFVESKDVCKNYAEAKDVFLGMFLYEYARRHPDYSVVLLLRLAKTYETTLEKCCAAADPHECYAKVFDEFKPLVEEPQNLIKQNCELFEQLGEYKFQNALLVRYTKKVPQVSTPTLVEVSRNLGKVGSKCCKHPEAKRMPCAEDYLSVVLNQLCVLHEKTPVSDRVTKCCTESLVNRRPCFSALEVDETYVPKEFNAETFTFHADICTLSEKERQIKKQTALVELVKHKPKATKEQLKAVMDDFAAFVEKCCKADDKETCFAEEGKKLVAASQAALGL

The pIC50 is −log10 of the IC50, conventionally taken in molar units. In the case of `COc1cc2cc(c1Cl)N(C)C(=O)C[C@H](OC(=O)Cc1ccc(C(C)=O)cc1F)[C@]1(C)O[C@H]1[C@H](C)[C@@H]1C[C@@](O)(NC(=O)O1)[C@H](OC)/C=C/C=C(\C)C2` [Compound 2], the “% of free maytansinoid remaining after 24 h” value stood at 74.8% in data set [1] and 71.8% in data set [2]. The negative logarithm of the IC50 (pIC50) in data set [3] is 9.52.
Turning to `COc1cc2cc(c1Cl)N(C)C(=O)C[C@H](OC(=O)Cc1ccc(/C(C)=N/NC(=O)c3ccc(NC(=O)CCCCCN4C(=O)C=CC4=O)cc3S(=O)(=O)O)cc1F)[C@]1(C)O[C@H]1[C@H](C)[C@@H]1C[C@@](O)(NC(=O)O1)[C@H](OC)/C=C/C=C(\C)C2` [Compound 30], the fraction unbound at albumin (blood, pooled human whole blood, 15 s) is 0.017; on albumin (blood, pooled human whole blood, 8 min) it was 0.015; at albumin (plasma, pooled human plasma, 15 s) it was 0.036; at albumin (plasma, pooled human plasma, 8 min) it was 0.015. Besides, in data set [4], the “free maytansinoid after 24 h at pH 7.4” value amounted to 9.6%**. Moreover, the antitumor activity result in data set [5] was “partial and complete tumor regressions”.
As for `COc1cc2cc(c1Cl)N(C)C(=O)C[C@H](OC(=O)[C@H](C)N(C)C(C)=O)[C@]1(C)O[C@H]1[C@H](C)[C@@H]1C[C@@](O)(NC(=O)O1)[C@H](OC)/C=C/C=C(\C)C2` [Maytansine, maytansine, reference compound], the negative-log IC50 (pIC50) in data set [3] is 9.66. The antitumor activity result in data set [5] is “principally inactive in the tested models or only showed marginal tumor inhibition”.
